This is an account of results in patent publication US9539249B2, “PPAR gamma agonists for treatment of multiple sclerosis” (InteKrin Therapeutics, Inc., priority 2013, dated 2017).

The structures appear in SMILES notation. “Also recorded” adds a separate entry of the source. Like-named read-outs stand apart in the source and are kept apart here.

Data set [1] in a line: HPLC fractionation of radiolabeled INT131 before injection and at the close of the experiment. The class given is physicochemical. The note with it: prior to injection and at the close of the experiment. As for the experimental part:
(§1) To test whether INT131 is able to penetrate the intact BBB INT131 was radiolabeled with tritium (“[^3H]INT131”), prior to intraperitoneal injection into adult Sprague-Dawley rats. The purity of the radiolabeled INT131 was determined by high-performance liquid chromatography (HPLC) fractionation prior to injection, and again at the close of the experiment. […] The test animals were sacrificed at 1, 6 and 24 hours after injection and blood, brain, cerebrospinal fluid (“CSF”), spinal cord, kidney, liver and small bowel were harvested for determination of [^3H]INT131 content by liquid scintillography.

The subject of data set [2] is EAE. Nature of the data set: EAE relapse model, INT131 treatment begun at first remission. Conditions: for clinical course from the 22nd day following immunization: treated from day 20, vehicle animals relapsed; for relapse rate (percent of animals relapsed): 25th day post-immunization, vehicle 72 percent. It is filed as in vivo, mice. An excerpt:
EAE is a well-characterized and widely used model of MS. It is one of the few animal models in which drug therapeutic activity in the model often mimics and anticipates the drug's effects in human disease. In this model, mice are immunized with well-defined antigenic fragments of central nervous system myelin, such as fragments of the proteolipid protein (PLP). Over the course of 2 to 3 weeks the immunized animals develop a clinical and histopathologic syndrome of T-cell mediated cerebral autoimmunity that is highly reminiscent of relapsing/remitting MS (RRMS). The similarities between EAE and RRMS include inflammatory cerebral infiltrated and accompanying Th1/Th17 responses to both the disease initiating myelin PLP peptide, and subsequent epitope spread, seen in disease relapse. The animals were immunized with the myelin peptide (PLP^139-151) and the spread epitope peptide (PLP^178-191) which drives disease relapse. Studies consisted of three experimental arms in which the mice were given daily ip injection of vehicle, or either 1 or 3 mg/kg/d of INT131. Following immunization, the animals underwent daily neurological evaluation by an experienced investigator. In these studies treatment began at the time of the first remission. […] Following the expected clinical disease peak at about two weeks post-immunization, symptoms began to ebb as the animals drifted into remission. All of the animals were treated with INT131 on day 20. By the 22nd day following immunization relapse began as expected, however, only in the vehicle treated animals.

For data set [3], the system named is infiltrating CD45-positive leukocytes. Nature of the data set: CD45-positive leukocyte infiltration in brainstem of EAE mice treated at the peak of disease. It is filed as in vivo. An excerpt:
Initiating INT131 treatment during remission extends the time subjects remain relapse-free, as compared to vehicle/placebo treatment. However, because there is little active neuroinflammation during remission, this paradigm is not informative about the effects of INT131 on acute neuroinflammation. To better understand the effects of INT131 on the acute inflammatory response we treated mice with EAE at the height of the clinical disease. […] INT131 treatment was begun at the peak of disease (day 20) and brainstems were harvested at day 32, and stained with αCD45 to identify infiltrating leukocytes. CD45 (also known as Leukocyte Common Antigen) is expressed on all hematopoietic cells except erythrocytes and platelets, and is required for B- and T cell-receptor-mediated activation. Thus, CD45 is critical in mediating the inflammatory process. […] These findings unify the clinical and histological findings that INT131 is a potent and effective treatment of acute neuroinflammation in this model of RRMS.

A short description of data set [4]: Tissue distribution of [3H]INT131 after intraperitoneal injection (penetration of the intact BBB). The note with it: for concentration at 6 h: 6 h after ~50 mg/kg ip; for concentration at 24 h: 24 h after ~50 mg/kg ip. The class given is in vivo, Sprague-Dawley rats. As for the experimental part: as §1
[5] abbreviates: Sprague-Dawley, CSF, intraperitoneal, rat, read-out: INT131 concentration in CSF.
[6] abbreviates: Sprague-Dawley, blood, intraperitoneal, rat, read-out: INT131 concentration in Blood.
The mark [7] stands for this setting: Sprague-Dawley, brain, intraperitoneal, rat, read-out: INT131 concentration in Brain.
Where [8] appears, read: Sprague-Dawley, kidney, intraperitoneal, rat, read-out: INT131 concentration in Kidney.
The mark [9] stands for this setting: Sprague-Dawley, liver, intraperitoneal, rat, read-out: INT131 concentration in Liver.
[10] abbreviates: Sprague-Dawley, small bowel, intraperitoneal, rat, read-out: INT131 concentration in Small bowel.
Where [11] appears, read: Sprague-Dawley, spinal cord, intraperitoneal, rat, read-out: INT131 concentration in Spinal cord.

`O=S(=O)(Nc1cc(Cl)c(Oc2cnc3ccccc3c2)c(Cl)c1)c1ccc(Cl)cc1Cl` [[^3H]INT131]: in data set [1], the “stability of radiolabeled material over the course of the study (HPLC)” value is “virtually all of the radiolabeled material was found in a single peak”.
With `O=S(=O)(Nc1cc(Cl)c(Oc2cnc3ccccc3c2)c(Cl)c1)c1ccc(Cl)cc1Cl` [INT131], the “clinical course from the 22nd day following immunization” value in data set [2] (1 mg/kg) is “continued to improve slightly”; in data set [2] (3 mg/kg) it was “remained stable”. The entries for the “relapse rate (percent of animals relapsed)” value in data set [2] (1 mg/kg/d ip) and in data set [2] (3 mg/kg/d ip) were 9% and 16%, respectively. Also, the “disease burden among treated animals that relapse” value in data set [2] (in comparison to vehicle treated mice) is recorded as “exceptionally mild”. Moreover, the “symptoms of animals with EAE” value in data set [2] (mouse, in vivo) was “becoming and remaining mostly symptom-free”. Moreover, in data set [2] (treatment begun at first remission), the effect on relapse entry is “virtually blocks relapse”. For the same molecule, the clinical symptoms entry in data set [3] (treatment at the height of clinical disease) is “rapid improvement in clinical symptoms”. Also, the “infiltrating CD45-positive leukocytes in brainstem” value in data set [3] (treatment from day 20 (peak of disease), brainstems harvested day 32, either concentration, compared to vehicle) is “paucity of infiltrating CD45-positive leukocytes; also recorded: paucity of infiltrating white cells”. For the same molecule, the concentration at 1 h is 292 ng/g in data set [4] (Sprague-Dawley, CSF, intraperitoneal, 1 h after ~50 mg/kg ip, rat, read-out: INT131 concentration in CSF); 4050 ng/g in data set [4] (Sprague-Dawley, blood, intraperitoneal, 1 h after ~50 mg/kg ip, rat, read-out: INT131 concentration in Blood); 569 ng/g in data set [4] (Sprague-Dawley, brain, intraperitoneal, 1 h after ~50 mg/kg ip, rat, read-out: INT131 concentration in Brain); 7730 ng/g in data set [4] (Sprague-Dawley, kidney, intraperitoneal, 1 h after ~50 mg/kg ip, rat, read-out: INT131 concentration in Kidney); 24400 ng/g in data set [4] (Sprague-Dawley, liver, intraperitoneal, 1 h after ~50 mg/kg ip, rat, read-out: INT131 concentration in Liver); < 500 ng/g in data set [4] (Sprague-Dawley, rat, neural compartments (brain tissue), intraperitoneal, one hour after single administration of ~50 mg/kg, read-out: average amount of INT131 in the neural compartments). Also, the concentration at 1 h worked out at 19700 ng/g in data set [4] (Sprague-Dawley, small bowel, intraperitoneal, 1 h after ~50 mg/kg ip, rat, read-out: INT131 concentration in Small bowel) and 478 ng/g in data set [4] (Sprague-Dawley, spinal cord, intraperitoneal, 1 h after ~50 mg/kg ip, rat, read-out: INT131 concentration in Spinal cord). For the same molecule, the concentration at 6 h worked out at 2860 ng/g in data set [4] (setting [5]); 41800 ng/g in data set [4] (setting [6]); 5980 ng/g in data set [4] (setting [7]); 32900 ng/g in data set [4] (setting [8]); 141000 ng/g in data set [4] (setting [9]); 223000 ng/g in data set [4] (setting [10]). For the same molecule, the concentration at 6 h in data set [4] (setting [11]) is 4810 ng/g. Further, the concentration at 24 h in data set [4] (setting [5]) worked out at 5300 ng/g; in data set [4] (setting [6]), 17900 ng/g; in data set [4] (setting [7]), 4650 ng/g; in data set [4] (setting [8]), 15400 ng/g; in data set [4] (setting [9]), 36400 ng/g; in data set [4] (setting [10]), 34500 ng/g. The concentration at 24 h in data set [4] (setting [11]) was found to be 4310 ng/g. Moreover, in data set [4] (Sprague-Dawley, rat, brain and spinal cord relative to blood, intraperitoneal, 50 mg/kg, 6 hours after injection, read-out: level of INT131 in brain and spinal cord relative to the level found in blood), the Kp at 6 h was ~0.1. In addition, in data set [4] (Sprague-Dawley, rat, brain and spinal cord, intraperitoneal, 50 mg/kg, 1 day after injection, read-out: absolute amount of INT131 in the brain and spinal cord), the concentration at 1 day was > 4000 ng/g. In addition, the Kp at 24 h in data set [4] (Sprague-Dawley, rat, neural tissues relative to circulation (blood), intraperitoneal, 50 mg/kg, 24 hours after injection, read-out: level of INT131 in neural tissues relative to that found in the circulation) was 0.25. The “increase of the amount of INT131 in the neural tissues versus 1 hour” value in data set [4] (at 6 and 24 hours) is listed as “approximately 10 fold”. In addition, the “amount in neural compartments, fold less than that found in the circulation” value in data set [4] (one hour after single administration of ~50 mg/kg) is given as “approximately 10 fold”.
